Results from patent US20060069132A1, “Azolecarboxamide herbicides” (priority 2004, published 2006).
Where two headings read alike, the source gives them in different places.

Legend:
[1] = test system: giant foxtail; experiment: Test A pre-/postemergence herbicide test; assay type: in vivo, Setaria faberi; settings: for pest or weed control at 125 g/ha / pest or weed control at 500 g/ha: Setaria faberi, 240 h, read-out: Foxtail, Giant plant response rating; for pest or weed control at 125 g/ha: 125 g ai/ha
How it was run: (§1)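 Visual injury scores on a 0–100 scale (100 = complete control) taken about ten days post-treatment in greenhouse against untreated controls; dash means no result. Treatments: preemergence soil spray and postemergence spray to runoff on one- to two-leaf plants 2 to 10 cm tall, surfactant-containing formulation.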

[2] = test system: velvetleaf; experiment: Test A pre-/postemergence herbicide test; assay type: in vivo, Abutilon theophrasti; settings: for pest or weed control at 125 g/ha / pest or weed control at 500 g/ha: Abutilon theophrasti, 240 h, read-out: Velvetleaf plant response rating; for pest or weed control at 125 g/ha: 125 g ai/ha
How it was run: as §1

[3] = test system: barnyardgrass; experiment: Test C flooded paddy test; assay type: in vivo, Echinochloa crus-galli
How it was run: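 After a postemergence application at 1 to 4 leaves (plants 2–18 cm high), or at 2 leaves for barnyardgrass in flooded paddy, plants stayed in the greenhouse for 12 to 14 days. Damage was then judged visually relative to control plants, with 100 indicating complete control.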

[4] = test system: smallflower umbrella sedge; experiment: Test C flooded paddy test; assay type: in vivo, Cyperus difformis
[5] = test system: goosegrass; experiment: Test C pre-/postemergence herbicide test; assay type: in vivo, Eleusine indica; settings: preemergence
Description: (§2) Seeds of plant species selected from bermudagrass (Cynodon dactylon (L.) Pers.), Surinam grass (Urochloa decumbens (Staph) R. D. Webster, previously named Brachiaria decumbens Stapf), cocklebur (Xanthium strumarium L.), corn (Zea mays L.), large crabgrass (Digitaria sanguinalis (L.) Scop.), woolly cupgrass (Eriochloa villosa (Thunb.) Kunth), giant foxtail (Setaria faberi Herrm.), goosegrass (Eleusine indica (L.) Gaertn.), johnsongrass (Sorghum halepense (L.) Pers.), kochia (Kochia scoparia (L.) Schrad.), lambsquarters (Chenopodium album L.), morningglory (Ipomoea coccinea L.), eastern black nightshade (Solanum ptycanthum Dunal), yellow nutsedge (Cyperus esculentus L.), pigweed (Amaranthus retroflexus L.), common ragweed (Ambrosia elatior L.), soybean (Glycine max (L.) Merr.), common (oilseed) sunflower (Helianthus annuus L.) and velvetleaf (Abutilon theophrasti Medik.) were planted and treated preemergence with test chemicals formulated in a non-phytotoxic solvent mixture which included a surfactant.
(§3) At the same time, plants selected from these crop and weed species and also winter barley (Hordeum vulgare L.), blackgrass (Alopecurus myosuroides Huds.), canarygrass (Phalaris minor Retz.), chickweed (Stellaria media (L.) Vill.), downy bromegrass (Bromus tectorum L.), green foxtail (Setaria viridis (L.) Beauv.), Italian ryegrass (Lolium multiflorum Lam.), wheat (Triticum aestivum L.), wild oat (Avenafatua L.) and windgrass (Apera spica-venti (L.) Beauv.) were treated with postemergence applications of some of the test chemicals formulated in the same manner. Plants ranged in height from 2 to 18 cm (1- to 4-leaf stage) for postemergence treatments. Plant species in the flooded paddy test consisted of rice (Oryza sativa), smallflower umbrella sedge (Cyperus difformis L.), ducksalad (Heteranthera limosa (Sw.) Willd.) and barnyardgrass (Echinochloa crus-galli (L.) Beauv.) grown to the 2-leaf stage for testing. Treated plants and controls were maintained in a greenhouse for 12 to 14 days, after which time all species were compared to controls and visually evaluated. Plant response ratings, summarized in Table C, are based on a scale of 0 to 100 where 0 is no effect and 100 is complete control. A dash (-) response means no test result.

[6] = test system: lambsquarters; experiment: Test C pre-/postemergence herbicide test; assay type: in vivo, Chenopodium album; settings: preemergence
Description: as §2, §3

[7] = test system: kochia; experiment: Test C pre-/postemergence herbicide test; assay type: in vivo, Kochia scoparia; settings: preemergence
Description: as §2, §3

[8] = test system: pigweed; experiment: Test C pre-/postemergence herbicide test; assay type: in vivo, Amaranthus retroflexus; settings: preemergence
Description: as §2, §3

[9] = test system: woolly cupgrass; experiment: Test C pre-/postemergence herbicide test; assay type: in vivo, Eriochloa villosa; settings: preemergence
Description: as §2, §3

[10] = Postemergence, 500 g ai/ha, 0 to 100 scale, 0 no effect, 100 complete control
[11] = Postemergence, 2000 g ai/ha, 0 to 100 scale, 0 no effect, 100 complete control
[12] = Preemergence, 2000 g ai/ha, visual rating, 0 to 100 scale (0 no effect, 100 complete control)
[13] = preemergence, 500 g ai/ha, visual injury, 0 to 100 scale (0 no effect, 100 complete control)
[14] = 62 g ai/ha, scale 0 to 100 (0 no effect, 100 complete control)
[15] = 250 g ai/ha, scale of 0 to 100, 0 is no effect, 100 is complete control
[16] = 500 g ai/ha, visual rating after 12 to 14 days, scale 0 to 100 (0 no effect, 100 complete control)
[17] = 125 g ai/ha, scale 0 to 100 (0 no effect, 100 complete control)
[18] = post-emergence, Postemergence, 0 to 100 scale, 0 no effect, 100 complete control
[19] = post-emergence, Postemergence, 500 g ai/ha, 0 to 100 scale, 0 no effect, 100 complete control
[20] = pre-emergence, preemergence, visual injury, 0 to 100 scale (0 no effect, 100 complete control)
[21] = pre-emergence, preemergence, 500 g ai/ha, visual injury, 0 to 100 scale (0 no effect, 100 complete control)

SMILES | Foxtail, Giant plant response rating [1, 10] | Plant response rating, Foxtail, Giant [1, 11] | Foxtail, Giant plant response rating [1, 12] | Velvetleaf plant response rating [2, 10] | Plant response rating, Velvetleaf [2, 11] | Velvetleaf plant response rating [2, 12] | Velvetleaf plant response rating [2, 13] | Barnyardgrass plant response rating [3, 14] | Barnyardgrass plant response rating [3, 15] | Plant response rating, Barnyardgrass [3, 16] | Sedge, Umbrella plant response rating [4, 17] | Sedge, Umbrella plant response rating [4, 15] | Plant response rating, Sedge, Umbrella [4, 16] | Barnyardgrass plant response rating [3, 17] | Sedge, Umbrella plant response rating ([4]; 62 g ai/ha, scale 0 to 100) | also measured
C=Cn1nc(C(C)(C)C)cc1C(=O)Nc1cccc(C(C)=O)c1 [Compound 127] | 30 | 30 | 35 | 0 | 0 | 30 | 10 | 20 | 30 | 55 | 80 | 80 | 85 |  |  | Foxtail, Giant plant response rating ([1]; Preemergence, 500 g ai/ha, visual rating, 0 to 100 scale (0 no effect, 100 complete control)): 20; Barnyardgrass plant response rating ([3]; 125 g ai/ha, scale of 0 to 100, 0 is no effect, 100 is complete control): 30; Sedge, Umbrella plant response rating [4, 14]: 80
CCn1nc(C(C)(C)C)c(F)c1C(=O)Nc1cc(C(=O)N(C)C)ccc1F [Compound 276, N-[5-[(dimethylamino)carbonyl]-2-fluorophenyl]-3-(1,1-dimethylethyl)-1-ethyl-4-fluoro-1H-pyrazole-5-carboxamide] |  |  |  |  |  |  |  |  |  |  |  |  |  |  |  | pest or weed control at 62 g/ha ([3]; Echinochloa crus-galli, 62 g ai/ha, scale 0 to 100 (0 no effect, 100 complete control), read-out: Barnyardgrass plant response rating): 0%; pest or weed control at 125 g/ha ([3]; Echinochloa crus-galli, 125 g ai/ha, scale 0 to 100 (0 no effect, 100 complete control), read-out: Barnyardgrass plant response rating): 15%; pest or weed control at 250 g/ha ([3]; Echinochloa crus-galli, 250 g ai/ha, scale of 0 to 100, 0 is no effect, 100 is complete control, read-out: Barnyardgrass plant response rating): 50%; pest or weed control at 500 g/ha ([3]; Echinochloa crus-galli, 500 g ai/ha, visual rating after 12 to 14 days, scale 0 to 100 (0 no effect, 100 complete control), read-out: Plant response rating, Barnyardgrass): 70%; pest or weed control at 62 g/ha ([4]; Cyperus difformis, 62 g ai/ha, scale 0 to 100, read-out: Sedge, Umbrella plant response rating): 45%; pest or weed control at 125 g/ha ([4]; Cyperus difformis, 125 g ai/ha, scale 0 to 100 (0 no effect, 100 complete control), read-out: Sedge, Umbrella plant response rating): 75%; pest or weed control at 250 g/ha ([4]; Cyperus difformis, 250 g ai/ha, scale of 0 to 100, 0 is no effect, 100 is complete control, read-out: Sedge, Umbrella plant response rating): 80%; pest or weed control at 500 g/ha ([4]; Cyperus difformis, 500 g ai/ha, visual rating after 12 to 14 days, scale 0 to 100 (0 no effect, 100 complete control), read-out: Plant response rating, Sedge, Umbrella): 85%
C=CCN(C)C(=O)c1cccc(NC(=O)c2cc(C(C)(C)C)nn2CC)c1 [Compound 285] | 25 | 55 | 90 | 60 | 75 | 40 | 35 | 10 | 55 | 75 | 35 | 50 | 65 | 25 | 25 | Foxtail, Giant plant response rating [1, 13]: 60
CCOC(=O)c1cccc(NC(=O)c2cc(C(C)(C)C)nn2C)n1 [Compound 313] | 70 | 80 | 90 | 40 | 50 | 80 | 65 | 0 |  |  | 70 |  |  | 0 | 30 | Foxtail, Giant plant response rating [1, 13]: 75; Barnyardgrass plant response rating ([3]; 16 g ai/ha, scale 0 to 100): 0; Barnyardgrass plant response rating ([3]; 31 g ai/ha, scale 0 to 100): 0; Sedge, Umbrella plant response rating ([4]; 16 g ai/ha, scale 0 to 100): 0; Sedge, Umbrella plant response rating ([4]; 31 g ai/ha, scale 0 to 100): 0
CCNC(=O)c1ccc(F)c(NC(=O)c2c3c(nn2CC)C(C)(C)CC3)c1 [Compound 353] |  |  |  |  |  |  |  | 0 | 20 | 20 | 0 | 50 | 50 | 0 | 0 | 
CCc1nn(C(C)(C)C)nc1C(=O)Nc1cccc(C(=O)N(C)CC)c1 [Compound 384] |  |  |  |  |  |  |  | 65 | 90 | 95 | 80 | 80 | 80 | 75 | 80 | Plant response rating, Goosegrass ([5]; 62 g ai/ha, scale 0 to 100): 85; Plant response rating (0 = no effect, 100 = complete control), Goosegrass ([5]; 125 g ai/ha): 95; Plant response rating, Goosegrass ([5]; 250 g ai/ha, scale 0-100): 100; Plant response rating, Lambsquarters ([6]; 62 g ai/ha, scale 0 to 100): 100; Plant response rating (0 = no effect, 100 = complete control), Lambsquarters ([6]; 125 g ai/ha): 100; Plant response rating, Lambsquarters ([6]; 250 g ai/ha, scale 0-100): 100; Plant response rating, Kochia ([7]; 62 g ai/ha, scale 0 to 100): 90; Plant response rating (0 = no effect, 100 = complete control), Kochia ([7]; 125 g ai/ha): 100; Plant response rating, Kochia ([7]; 250 g ai/ha, scale 0-100): 100; Plant response rating, Pigweed ([8]; 62 g ai/ha, scale 0 to 100): 100; Plant response rating (0 = no effect, 100 = complete control), Pigweed ([8]; 125 g ai/ha): 100; Plant response rating, Pigweed ([8]; 250 g ai/ha, scale 0-100): 100; Plant response rating, Cupgrass, Woolly ([9]; 62 g ai/ha, scale 0 to 100): 55; Plant response rating (0 = no effect, 100 = complete control), Cupgrass, Woolly ([9]; 125 g ai/ha): 75; Plant response rating, Cupgrass, Woolly ([9]; 250 g ai/ha, scale 0-100): 95
CCNC(=O)c1cccc(NC(=O)c2nc(C(C)(C)C)nn2CC)c1 [Compound 446, 3-(1,1-dimethylethyl)-1-ethyl-N-[3-[(ethylamino)carbonyl]phenyl]-1H-1,2,4-triazole-5-carboxamide] |  |  |  |  |  |  |  |  |  |  |  |  |  |  |  | pest or weed control at 125 g/ha [1, 18]: 75%; pest or weed control at 500 g/ha [1, 19]: 90%; pest or weed control at 125 g/ha [1, 20]: 70%; pest or weed control at 500 g/ha [1, 21]: 95%; pest or weed control at 125 g/ha [2, 18]: 30%; pest or weed control at 500 g/ha [2, 19]: 60%; pest or weed control at 125 g/ha [2, 20]: 10%; pest or weed control at 500 g/ha [2, 21]: 20%
